Measured values published in ChEMBL document CHEMBL5316318, “Structural Modification and Pharmacological Evaluation of Substituted Quinoline-5,8-diones as Potent NSD2 Inhibitors” (J Med Chem, 2023).
The source made the active and inactive calls. No cut-off for these calls is given here.

Assays:
[1] = target: Serine/threonine-protein kinase mTOR (Homo sapiens) (UniProt P42345); test: Modulation of mTOR signaling pathway in human KMS-11 cells at 1 uM incubated for 48 hrs by RNA-Seq analysis; assay type: cell-based; conditions: filed as modulator
[2] = Apparent permeability coefficient, Papp in MDCK cells; assay type: ADME, cell-based, Canis lupus familiaris; conditions: dog
[3] = target: Histone-lysine N-methyltransferase, H3 lysine-36 specific (Homo sapiens, UniProt Q96L73); test: Inhibition of NSD1 (unknown origin)
[4] = target: Histone-lysine N-methyltransferase NSD3 (Homo sapiens, UniProt Q9BZ95); test: Inhibition of NSD3 (unknown origin)
[5] = target: Protein arginine N-methyltransferase 5 (Homo sapiens, UniProt O14744); test: Inhibition of PRMT5 (unknown origin) by AlphaLISA assay
[6] = target: Histone-lysine N-methyltransferase 2A (Homo sapiens, UniProt Q03164); test: Inhibition of MLL1 (unknown origin) using SAM as substrate preincubated for 10 mins followed by substrate addition and measured after 4 hrs by HTRF analysis
[7] = target: Histone-lysine N-methyltransferase NSD2 (Homo sapiens) (UniProt O96028); test: Binding affinity to human recombinant NSD2 (941 to 1240 residues) at 200 uM by CPMG based NMR analysis
RS4-11 = test: Antiproliferative activity against human RS4-11 cells harboring NSD2 E1099K mutant assessed as inhibition of cell growth incubated for 6 days by CCK-8 assay; assay type: functional, cell-based; conditions: RS4-11, 144 h
MOLT-4 = test: Antiproliferative activity against human MOLT-4 cells harboring wild type NSD2 assessed as inhibition of cell growth incubated for 6 days by CCK-8 assay; assay type: functional, cell-based; conditions: MOLT-4, 144 h
OCI-AML2 = test: Antiproliferative activity against human OCI-AML2 cells harboring wild type NSD2 assessed as inhibition of cell growth incubated for 6 days by CCK-8 assay; assay type: functional, cell-based; conditions: OCI-AML2, 144 h
MOLM-13 = test: Antiproliferative activity against human MOLM-13 cells harboring wild type NSD2 assessed as inhibition of cell growth incubated for 6 days by CCK-8 assay; assay type: functional, cell-based; conditions: MOLM-13, 144 h
CMK = test: Antiproliferative activity against human CMK cells harboring wild type NSD2 assessed as inhibition of cell growth incubated for 6 days by CCK-8 assay; assay type: functional, cell-based; conditions: 144 h
[8] = target: Protransforming growth factor alpha (Homo sapiens) (UniProt P01135); test: Inhibition of TGFA transcriptional activation in human KMS-11 cells assessed as reduction in TGFA mRNA expression at 0.5 uM by qRT-PCR analysis; assay type: cell-based
[9] = target: Neural cell adhesion molecule 1 (Homo sapiens) (UniProt P13591); test: Inhibition of NCAM1 transcriptional activation in human KMS-11 cells assessed as reduction in NCAM1 mRNA expression at 0.5 uM by qRT-PCR analysis; assay type: cell-based
[10] = target: Hepatocyte growth factor receptor (Homo sapiens) (UniProt P08581); test: Inhibition of MET transcriptional activation in human KMS-11 cells assessed as reduction in H3K36me2 level in promoter region by ChIP-qPCR analysis; assay type: cell-based
[11] = target: Neural cell adhesion molecule 1 (Homo sapiens) (UniProt P13591); test: Inhibition of NCAM1 transcriptional activation in human KMS-11 cells assessed as reduction in H3K36me2 level in promoter region by ChIP-qPCR analysis; assay type: cell-based
KMS-11 [12] = test: Induction of apoptosis in human KMS-11 cells assessed as early apoptotic cells at 0.2 uM incubated for 72 hrs by Annexin V-FITC/PI staining based flow cytometry analysis (reference value: 3.96%); assay type: functional
KMS-11 [13] = test: Induction of apoptosis in human KMS-11 cells assessed as late apoptotic cells at 0.2 uM incubated for 72 hrs by Annexin V-FITC/PI staining based flow cytometry analysis (reference value: 6.47%); assay type: functional
KMS-11 [14] = test: Induction of apoptosis in human KMS-11 cells assessed as dead cells at 0.2 uM incubated for 72 hrs by Annexin V-FITC/PI staining based flow cytometry analysis (reference value: 6.48%); assay type: functional
KMS-11 [15] = test: Induction of apoptosis in human KMS-11 cells assessed as downregulation of BCL-XL protein expression at 0.2 to 0.8 uM by Western blot analysis; assay type: functional, cell-based; conditions: dose 0.2-0.8 µM
KMS-11 [16] = test: Induction of apoptosis in human KMS-11 cells assessed as upregulation of BIM protein expression at 0.2 to 0.8 uM by Western blot analysis; assay type: functional, cell-based; conditions: dose 0.2-0.8 µM

Chain of Neural cell adhesion molecule 1 (Homo sapiens) (P13591 whole entry): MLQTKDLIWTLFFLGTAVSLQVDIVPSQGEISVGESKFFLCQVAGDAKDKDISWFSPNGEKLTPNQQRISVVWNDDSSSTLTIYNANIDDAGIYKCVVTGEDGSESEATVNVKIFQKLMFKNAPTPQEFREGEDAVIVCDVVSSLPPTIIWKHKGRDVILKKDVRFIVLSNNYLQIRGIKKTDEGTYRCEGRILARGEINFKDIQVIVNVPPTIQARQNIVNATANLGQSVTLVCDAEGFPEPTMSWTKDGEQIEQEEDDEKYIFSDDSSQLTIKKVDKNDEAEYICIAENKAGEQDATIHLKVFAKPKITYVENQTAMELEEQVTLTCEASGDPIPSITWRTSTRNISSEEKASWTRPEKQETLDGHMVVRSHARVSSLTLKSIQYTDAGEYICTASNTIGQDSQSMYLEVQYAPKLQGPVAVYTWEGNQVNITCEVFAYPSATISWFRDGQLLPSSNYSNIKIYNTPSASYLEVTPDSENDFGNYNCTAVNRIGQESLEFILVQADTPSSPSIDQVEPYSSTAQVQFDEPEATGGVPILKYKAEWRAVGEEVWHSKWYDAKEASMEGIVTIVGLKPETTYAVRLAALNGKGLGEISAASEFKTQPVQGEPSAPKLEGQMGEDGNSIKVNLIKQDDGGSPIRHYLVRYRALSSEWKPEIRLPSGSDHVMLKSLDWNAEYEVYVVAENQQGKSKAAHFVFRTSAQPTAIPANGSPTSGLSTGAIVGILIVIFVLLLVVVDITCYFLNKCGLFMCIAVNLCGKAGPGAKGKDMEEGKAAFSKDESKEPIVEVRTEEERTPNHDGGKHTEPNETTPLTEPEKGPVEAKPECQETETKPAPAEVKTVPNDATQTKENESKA
Chain of Protransforming growth factor alpha (Homo sapiens) (P01135 whole entry): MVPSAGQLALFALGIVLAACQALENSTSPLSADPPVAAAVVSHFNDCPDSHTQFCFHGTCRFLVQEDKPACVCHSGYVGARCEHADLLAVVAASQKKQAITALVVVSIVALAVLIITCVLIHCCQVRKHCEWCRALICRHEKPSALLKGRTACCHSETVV
Chain of Histone-lysine N-methyltransferase NSD3 (Q9BZ95 whole entry): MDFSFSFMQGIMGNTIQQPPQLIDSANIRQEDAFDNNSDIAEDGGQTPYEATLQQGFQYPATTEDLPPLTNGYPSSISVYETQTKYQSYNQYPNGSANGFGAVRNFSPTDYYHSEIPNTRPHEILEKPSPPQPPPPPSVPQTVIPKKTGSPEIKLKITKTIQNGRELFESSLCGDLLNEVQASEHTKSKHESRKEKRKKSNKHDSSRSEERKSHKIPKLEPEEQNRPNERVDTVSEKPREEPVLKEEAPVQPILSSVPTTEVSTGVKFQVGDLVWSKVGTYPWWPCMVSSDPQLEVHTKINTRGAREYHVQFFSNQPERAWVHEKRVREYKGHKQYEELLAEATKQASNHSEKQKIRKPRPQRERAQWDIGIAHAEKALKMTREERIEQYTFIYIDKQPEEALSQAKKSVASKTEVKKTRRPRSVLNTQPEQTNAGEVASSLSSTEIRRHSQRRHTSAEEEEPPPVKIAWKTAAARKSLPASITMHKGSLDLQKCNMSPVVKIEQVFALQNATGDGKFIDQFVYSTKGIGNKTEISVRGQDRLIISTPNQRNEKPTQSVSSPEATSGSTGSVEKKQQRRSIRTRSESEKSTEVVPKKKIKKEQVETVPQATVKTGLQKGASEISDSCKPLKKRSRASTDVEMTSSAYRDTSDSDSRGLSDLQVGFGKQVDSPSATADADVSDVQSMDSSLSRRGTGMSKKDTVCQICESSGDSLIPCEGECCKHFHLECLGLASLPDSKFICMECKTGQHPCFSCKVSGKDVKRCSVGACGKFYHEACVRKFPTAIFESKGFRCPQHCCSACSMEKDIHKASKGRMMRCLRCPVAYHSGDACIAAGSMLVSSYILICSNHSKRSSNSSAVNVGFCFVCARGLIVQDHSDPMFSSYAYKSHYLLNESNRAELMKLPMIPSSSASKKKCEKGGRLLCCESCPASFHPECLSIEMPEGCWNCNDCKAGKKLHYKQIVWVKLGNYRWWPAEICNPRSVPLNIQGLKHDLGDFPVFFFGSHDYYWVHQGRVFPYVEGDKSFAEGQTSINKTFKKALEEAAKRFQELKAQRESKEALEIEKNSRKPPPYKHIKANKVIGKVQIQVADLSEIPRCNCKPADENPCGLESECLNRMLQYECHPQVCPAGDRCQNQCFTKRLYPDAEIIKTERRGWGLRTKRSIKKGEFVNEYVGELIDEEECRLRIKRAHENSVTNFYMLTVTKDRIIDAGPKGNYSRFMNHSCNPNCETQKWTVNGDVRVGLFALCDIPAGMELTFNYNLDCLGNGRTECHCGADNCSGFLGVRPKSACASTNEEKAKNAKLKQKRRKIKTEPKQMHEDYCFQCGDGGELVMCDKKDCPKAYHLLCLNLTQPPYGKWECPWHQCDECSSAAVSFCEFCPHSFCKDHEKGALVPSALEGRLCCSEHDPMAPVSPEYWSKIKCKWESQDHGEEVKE
Chain of Hepatocyte growth factor receptor (Homo sapiens) (P08581 whole entry): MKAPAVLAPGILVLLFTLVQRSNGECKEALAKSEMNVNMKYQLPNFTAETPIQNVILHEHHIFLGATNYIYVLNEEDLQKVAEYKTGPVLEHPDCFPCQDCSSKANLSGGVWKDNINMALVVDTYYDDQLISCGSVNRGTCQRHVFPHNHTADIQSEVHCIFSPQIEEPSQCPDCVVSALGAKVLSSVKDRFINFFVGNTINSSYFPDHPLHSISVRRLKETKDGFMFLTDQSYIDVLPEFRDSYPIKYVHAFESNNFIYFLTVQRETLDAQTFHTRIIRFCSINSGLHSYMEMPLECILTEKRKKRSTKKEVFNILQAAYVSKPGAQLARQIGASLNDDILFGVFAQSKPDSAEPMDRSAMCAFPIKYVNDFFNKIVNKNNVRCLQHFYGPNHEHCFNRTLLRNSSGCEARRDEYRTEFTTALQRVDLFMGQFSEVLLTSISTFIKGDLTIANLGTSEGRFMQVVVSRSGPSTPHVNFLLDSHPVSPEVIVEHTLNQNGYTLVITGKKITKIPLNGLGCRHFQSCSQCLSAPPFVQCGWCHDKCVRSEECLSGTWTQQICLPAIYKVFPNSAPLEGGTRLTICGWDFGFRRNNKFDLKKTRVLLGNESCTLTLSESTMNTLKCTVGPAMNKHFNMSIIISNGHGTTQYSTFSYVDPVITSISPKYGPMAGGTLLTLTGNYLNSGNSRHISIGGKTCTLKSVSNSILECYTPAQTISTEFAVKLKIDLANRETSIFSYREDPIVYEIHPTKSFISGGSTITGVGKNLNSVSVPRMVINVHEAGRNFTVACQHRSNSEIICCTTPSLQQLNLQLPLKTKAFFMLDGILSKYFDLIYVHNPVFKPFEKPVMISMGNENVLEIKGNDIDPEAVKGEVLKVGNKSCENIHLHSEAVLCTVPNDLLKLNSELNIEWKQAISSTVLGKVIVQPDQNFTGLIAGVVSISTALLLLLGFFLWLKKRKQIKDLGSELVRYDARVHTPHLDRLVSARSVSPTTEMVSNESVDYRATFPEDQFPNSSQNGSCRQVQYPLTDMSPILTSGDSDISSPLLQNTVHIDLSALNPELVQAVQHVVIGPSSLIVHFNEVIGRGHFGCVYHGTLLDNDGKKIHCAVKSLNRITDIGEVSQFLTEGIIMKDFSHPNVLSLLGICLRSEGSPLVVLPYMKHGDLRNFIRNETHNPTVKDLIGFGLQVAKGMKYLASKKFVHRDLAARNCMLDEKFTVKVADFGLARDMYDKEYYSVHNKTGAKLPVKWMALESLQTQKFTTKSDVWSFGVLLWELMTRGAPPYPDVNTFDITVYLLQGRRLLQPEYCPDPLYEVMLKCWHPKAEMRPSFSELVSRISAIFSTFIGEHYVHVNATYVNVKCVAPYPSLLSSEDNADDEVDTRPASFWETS
Chain of Protein arginine N-methyltransferase 5 (O14744 whole entry): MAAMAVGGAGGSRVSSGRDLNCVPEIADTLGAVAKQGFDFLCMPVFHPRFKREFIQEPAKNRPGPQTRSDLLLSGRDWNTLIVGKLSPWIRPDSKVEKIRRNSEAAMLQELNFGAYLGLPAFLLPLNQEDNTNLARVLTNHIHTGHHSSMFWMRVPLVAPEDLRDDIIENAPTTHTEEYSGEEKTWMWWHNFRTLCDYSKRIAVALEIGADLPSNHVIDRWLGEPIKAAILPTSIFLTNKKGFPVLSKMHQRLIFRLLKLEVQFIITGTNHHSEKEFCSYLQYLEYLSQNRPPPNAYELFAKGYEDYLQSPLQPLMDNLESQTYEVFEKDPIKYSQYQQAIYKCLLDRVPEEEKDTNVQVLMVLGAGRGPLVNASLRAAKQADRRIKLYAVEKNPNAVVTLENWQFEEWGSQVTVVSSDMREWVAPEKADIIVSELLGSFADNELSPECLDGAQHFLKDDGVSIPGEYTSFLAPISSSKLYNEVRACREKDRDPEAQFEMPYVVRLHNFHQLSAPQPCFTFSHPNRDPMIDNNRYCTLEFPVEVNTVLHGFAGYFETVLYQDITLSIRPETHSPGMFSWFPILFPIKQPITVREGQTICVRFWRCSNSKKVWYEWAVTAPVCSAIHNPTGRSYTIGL

## CC#CC(=O)NC12CC(NC3=C(Cl)C(=O)c4ncccc4C3=O)(C1)C2
[1]
  Activity: Active
[2]
  Papp: 45 ×10⁻⁶ cm/s
[3]
  IC50: 690 nM
[4]
  IC50: 750 nM
[5]
  IC50: > 10000 nM
[6]
  IC50: > 10000 nM
[7]
  Activity: Active
RS4-11
  IC50: 304 nM
MOLT-4
  IC50: 1230 nM
OCI-AML2
  IC50: 2600 nM
MOLM-13
  IC50: 3170 nM
CMK
  IC50: 2600 nM
[8]
  inhibition: Active
[9]
  inhibition: Active
[10]
  inhibition: Active
[11]
  inhibition: Active
KMS-11 [12]
  Activity: 4.34%
KMS-11 [13]
  Activity: 7.79%
KMS-11 [14]
  Activity: 6.54%
KMS-11 [15]
  Activity: Active
KMS-11 [16]
  Activity: Active
